Measured values taken from patent US5426113A, “Method of preventing ulcer formation caused by nonsteroidal antiinflammatory drugs employing tetrazol-benzothiophene carboxamide compounds” (Warner-Lambert Company, priority 1994, dated 1995).
Entries after “also recorded” stand apart in the source; their conditions may differ. Read-outs that look alike come from different tables or passages of the source.

Experiments:
[1] = system: NSAID-induced gastric damage; details: indomethacin and aspirin in rats; Low J. E., et al., 1993; cited from earlier work
[2] = system: gastrointestinal tissues (stomach, small and large intestines); experiment: Whole body autoradiography after intravenous radiolabeled Example 1; type: in vivo
Plasma protein binding = type: in vitro ADME; details: rat, dog, sheep, and human
[3] = system: indomethacin-induced gastric damage; experiment: Indomethacin-induced gastric damage model; type: in vivo; details: Rattus norvegicus; oral, 15 minutes before 20 mg/kg indomethacin PO; assessed at 4 hours; read-out: ED50 cytoprotection, indomethacin
Method: (§1) Fifteen minutes later, the animals were orally challenged with a single dose of 20 mg/kg indomethacin or 288 mg/kg aspirin. The animals were euthanized either at 4 hours (indomethacin) or 30 minutes (aspirin) later and the amount of gastric damage was assessed using image analysis.

[4] = system: human basophil histamine release; experiment: Human basophil histamine release stimulated with anti-IgE; type: cell-based
[5] = system: human colonic adenocarcinoma (CaCO-2) cells
Method: [^14 C]Example 1 (22.9 μg/mL) was loaded on to either the apical (luminal) or basolateral (vascular) of the monolayer. Samples were obtained over 250 minutes from either side of the chamber in each experiment.

[6] = system: leukocyte adhesion in the animal's mesenteric post-capillary venules; experiment: NSAID (indomethacin)-induced leukocyte adhesion in rat mesenteric post-capillary venules, intravital microscopy; type: in vivo; details: indomethacin 10 minutes later
Source text: In these studies, oral treatment of rats with the NSAID indomethacin results in leukocyte adhesion in the animal's mesenteric post-capillary venules. This can be observed and measured using the technique of Intravital microscopy.

basal acid secretion = experiment: Shay rat model of basal acid secretion; type: in vivo; details: 50 or 200 mg/kg PO; pylorus ligated 1 hour later, acid content 4 hours later
Method: This has been tested in two different animal models. In the rat, Example 1 was tested in the Shay rat model of basal acid secretion. […] One hour later the animals were anesthetized and the pyloric sphincter to the stomach was ligated. The stomachs were removed 4 hours later and their acid content determined.

[7] = system: aspirin-induced gastric damage; experiment: Aspirin-induced gastric damage model (aspirin erosion model); type: in vivo; details: Rattus norvegicus, 0.5 h
Method: as §1
Additional compounds of Formula I were tested in both the MAC-1 and the aspirin-induced gastric damage model (Table 1 and FIG. 4). Compounds which were active in the MAC-1 assay were also active in the gastric cytoprotective assay.

MAC-1 [8] = target: T1, MAC-1 (Homo sapiens, UniProt P05107+P11215); details: Wright C. D., et al., Keystone symposium 1994; cited from earlier work
T1 construct: endogenous in cells

[9] = system: animal disease models (asthma, allergy, arthritis, adult respiratory distress syndrome (ARDS), and cardiac reperfusion); experiment: Animal disease models (asthma, allergy, arthritis, ARDS, cardiac reperfusion); type: in vivo
[10] = system: stimulated acid secretion; experiment: Dimaprit-stimulated gastric fistula beagle dog model; type: in vivo
Source text: All parameters of gastric secretion appeared to be practically identical to those observed in the vehicle-only controls.

[11] = system: NSAID-induced gastric damage; experiment: Gastric cytoprotection in animal models (NSAID-induced gastric damage); type: in vivo; details: Rattus norvegicus, po; range over models
Method: as §1

MAC-1 [12] = target: T1, MAC-1; experiment: Inhibition of MAC-1 mediated adhesion of FMLP-stimulated neutrophils to KLH-coated plastic; type: cell-based; details: 1 h, read-out: increase of MAC-1 dependent adherence to KLH-coated plastic
[13] = po, Table 1, aspirin-induced gastric damage model, read-out: Gastric Cytoprotective Effect (ED50, mg/kg PO)

T1 sequence (P05107 23-769, other chains not shown): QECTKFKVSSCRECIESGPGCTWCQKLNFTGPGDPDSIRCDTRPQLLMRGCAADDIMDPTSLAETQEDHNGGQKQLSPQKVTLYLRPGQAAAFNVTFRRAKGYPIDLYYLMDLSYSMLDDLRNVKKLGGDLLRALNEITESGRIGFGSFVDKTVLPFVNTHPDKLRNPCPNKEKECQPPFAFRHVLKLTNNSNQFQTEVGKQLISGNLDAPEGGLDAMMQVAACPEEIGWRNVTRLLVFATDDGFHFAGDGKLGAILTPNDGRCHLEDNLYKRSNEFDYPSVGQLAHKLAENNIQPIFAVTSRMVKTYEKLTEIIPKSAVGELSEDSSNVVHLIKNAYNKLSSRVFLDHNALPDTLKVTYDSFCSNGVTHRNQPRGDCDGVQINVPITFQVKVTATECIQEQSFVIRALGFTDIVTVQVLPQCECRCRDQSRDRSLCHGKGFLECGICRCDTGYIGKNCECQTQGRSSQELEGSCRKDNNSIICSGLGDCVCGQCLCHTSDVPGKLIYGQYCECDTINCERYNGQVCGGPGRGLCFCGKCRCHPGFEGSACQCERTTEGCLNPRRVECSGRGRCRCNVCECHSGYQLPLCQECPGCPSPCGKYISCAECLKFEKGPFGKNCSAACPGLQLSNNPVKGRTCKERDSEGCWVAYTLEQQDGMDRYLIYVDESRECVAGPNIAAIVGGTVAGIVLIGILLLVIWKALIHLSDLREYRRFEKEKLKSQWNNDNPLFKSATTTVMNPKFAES

COc1ccc2sc(C(=O)Nc3nnn[nH]3)c(OC(C)C)c2c1 [Example 1, 5-Methoxy-3-(1-methylethoxy)-N-1H-tetrazol-5-yl-benzo[b]thiophene-2-carboxamide]
gastric cytoprotective effects against damage caused by NSAIDs [1]: gastric cytoprotective effects | time to radiolabeled material associated with gastrointestinal tissues ([2]; rapid): 5 min | levels of radiolabeled material associated with gastrointestinal tissues ([2]; stomach, small and large intestines): high levels | fraction unbound (Plasma protein binding): 0.01 to 0.02 | ED50 [3]: 1 mg/kg | IC50 ([4]; Homo sapiens, anti-IgE stimulated, absence of serum): 300 nM | inhibitory effect on human basophil histamine release in the presence of serum ([4]; increasing concentration of serum (5-50%)): significantly reduced | amount on apical side compared to basolateral side [5]: significantly more | inhibition of indomethacin-induced leukocyte adhesion ([6]; 1 mg/kg PO, 40 and 70 minute time point): no protective effects | inhibition of indomethacin-induced leukocyte adhesion ([6]; 5 or 10 mg/kg PO): complete inhibition | effect on basal acid secretion (basal acid secretion): no effect | ED50 ([7]; oral, 15 minutes before 288 mg/kg aspirin PO, assessed at 30 minutes, read-out: ED50 cytoprotection, aspirin): 0.01 mg/kg | inhibition of neutrophil adhesion mediated by MAC-1 (MAC-1 [8]): can inhibit neutrophil adhesion; also recorded: inhibits neutrophil adhesion | ED50 ([9]; IV): 5 to 20 mg/kg | ED50 ([9]; oral): 30 to 100 mg/kg | changes in gastric secretion ([10]; 0.1, 1.0, or 10 mg/kg PO, dimaprit-stimulated): no significant changes | ED50 [11]: 0.01 to 1 mg/kg

CSCC[C@H](NC=O)C(=O)N[C@@H](CC(C)C)C(=O)N[C@@H](Cc1ccccc1)C(=O)O [N-formyl-methionyl-leucyl-phenylalanine]
activation at 0.01 µM (MAC-1 [12]): 49%

COc1ccc2c(OC(C)C)c(C(=O)Nc3nnn[nH]3)sc2c1 [Example 2, 6-Methoxy-3-(1-methylethoxy)-N-1H-tetrazol-5-yl-benzo[b]thiophene-2-carboxamide]
ED50 [7, 13]: 1 mg/kg

COc1cc2sc(C(=O)Nc3nnn[nH]3)c(Oc3ccccc3)c2cc1OC [Example 4, 5,6-Dimethoxy-3-phenoxy-N-1H-tetrazol-5-yl-benzo[b]thiophene-2-carboxamide]
ED50 [7, 13]: 0.01 mg/kg

CNC(=C[N+](=O)[O-])NCCSCc1ccc(CN(C)C)o1 [ranitidine]
increase in gastric pH ([10]; 1.5 mg/kg PO, dimaprit 0.2 mg/kg hr IV): 4 units

COc1cc2sc(C(=O)Nc3nnn[nH]3)c(OC(C)C)c2cc1OC [Example 3, 5,6-Dimethoxy-3-(1-methylethoxy)-N-1H-tetrazol5-yl-benzo[b]thiophene-2-carboxamide]
ED50 [7, 13]: 1 mg/kg

CN(C)CCCSC(=N)N [dimaprit]
gastric secretion pH ([10]; constant intravenous 0.2 mg/kg hr): 1.0
